Like-named read-outs stand apart in the source and are kept apart here.
Columns and labels:
GM00371 cells = test: Viability assay (Cell titer glo) in the 3-HIB assay; assay type: cell-based, human; conditions: read-out: 3HIB INHIBITION IC50 (μM) MEAN GM00371 cells Viablility Assay
Outline: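 GM00371 cells (10,000/well, EMEM/15% FBS) were exposed for 24 h at 37 °C to compounds in 1:3 serial dilution from 30 μM top concentration in EMEM. Reference Compound B at 30 μM served as maximal-toxicity control. Viability read as CellTiter-Glo luminescence.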

BCAT1 = target: T1, BCAT1 (Homo sapiens, UniProt P54687); test: BCAT1 enzyme inhibition (human), Glutamate Glo luminescence; assay type: biochemical
T1 sequence (P54687 1-386): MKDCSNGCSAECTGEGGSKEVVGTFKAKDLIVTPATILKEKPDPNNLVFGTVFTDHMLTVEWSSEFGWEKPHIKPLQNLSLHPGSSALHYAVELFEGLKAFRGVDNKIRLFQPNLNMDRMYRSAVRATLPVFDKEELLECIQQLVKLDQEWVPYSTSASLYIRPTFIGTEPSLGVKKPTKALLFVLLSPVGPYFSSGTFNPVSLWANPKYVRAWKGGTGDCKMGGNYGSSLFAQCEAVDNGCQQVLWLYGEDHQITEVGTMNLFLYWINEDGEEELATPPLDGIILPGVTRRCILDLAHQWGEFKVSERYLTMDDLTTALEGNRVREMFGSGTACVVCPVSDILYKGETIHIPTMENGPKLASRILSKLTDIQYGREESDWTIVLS
Outline: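 BCAT1 enzyme (0.06 ug/ml final) was preincubated with compound (3-0.0001 μM, 0.3% DMSO) for 10 or 60 min at room temperature in 50 mM Tris/0.05% TWEEN-20. The reaction then ran 10 min with 300 μM L-leucine and 250 μM alpha-ketoglutaric acid, was acid-quenched, and glutamate was read by luminescence. IC50 came from a 4-parameter fit, normalized to 10 μM VS558CSA inhibition.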

Row | SMILES | IC50 (BCAT1) [nM] | IC50 (GM00371 cells; Homo sapiens, 24 h) [µM] | IC50 (GM00371 cells; 24 hours) [µM]
1 | COC(=O)c1ccc2c(c1)nc(-c1ccccn1)n2[C@@H]1CCC[C@H](NC(=O)c2ccc(Br)s2)C1 [Compound 109] | ≥ 1000 | 0.1 to 0.5 | 
2 | CNC(=O)c1ccc2c(c1)nc(-c1ccccn1)n2[C@@H]1CCC[C@H](NC(=O)c2ccc(C#N)s2)C1 [Compound 112] | ≥ 1000 | ≥ 1 | 
3 | CNC(=O)c1ccc2c(c1)nc(-c1ccccc1C)n2[C@H]1CCC[C@@H](NC(=O)c2ccc(C#N)s2)C1 [Compound 134] | ≥ 1000 | ≥ 1 | 
4 | CNC(=O)c1ccc2c(c1)nc(-c1ccccc1C)n2[C@H]1CCC[C@@H](NC(=O)c2ccc(Br)s2)C1 [Compound 135] | ≥ 1000 | 0.5 to 1 | 
5 | CNC(=O)c1ccc2c(c1)nc(-c1ccccc1C#N)n2[C@H]1CCC[C@@H](NC(=O)c2ccc(C#N)s2)C1 [Compound 138] | 500 to 1000 | ≥ 1 | 
6 | C#Cc1ccccc1-c1nc2cc(C(=O)NC)ccc2n1[C@H]1CCC[C@@H](NC(=O)c2ccc(Br)s2)C1 [Compound 151] | 500 to 1000 | 0.1 to 0.5 | 
7 | CNC(=O)c1ccc2c(c1)nc(-c1cccc(F)c1)n2[C@H]1CCC[C@@H](NC(=O)c2ccc(Br)s2)C1 [Compound 154] | ≥ 1000 | 0.1 to 0.5 | 
8 | CNC(=O)c1ccc2c(c1)nc(-c1cccc(F)c1O)n2[C@H]1CCC[C@@H](NC(=O)c2ccc(Br)s2)C1 [Compound 163] | ≥ 1000 | 0.1 to 0.5 | 
9 | CNC(=O)c1cc2nc(-c3ccccc3C)n([C@H]3CCC[C@@H](NC(=O)c4ccc(Br)s4)C3)c2cc1F [Compound 208] | 100 to 500 | 0.1 to 0.5 | 
10 | COC(=O)c1cc2nc(-c3ccccn3)n([C@@H]3CCC[C@H](NC(=O)c4ccc(Br)s4)C3)c2cn1 [Compound 291] | 100 to 500 | 0.1 to 0.5 | 
11 | CNC(=O)c1cc2nc(-c3ccccn3)n([C@H]3CCC[C@@H](NC(=O)c4ccc(Br)s4)C3)c2cn1 [Compound 292] | 100 to 500 | 0.1 to 0.5 | 

Now from value to molecule, other results behind:

Row | IC50 (BCAT1) [nM] | SMILES | IC50 (GM00371 cells; Homo sapiens, 24 h) [µM] | IC50 (GM00371 cells; 24 hours) [µM]
12 | 100 to 500 | CNC(=O)c1ccc2c(c1)nc(-c1ccccc1C#N)n2[C@H]1CCC[C@@H](NC(=O)c2ccc(Br)s2)C1 [Compound 136] | < 0.1 | 
13 | < 100 | CNC(=O)c1ccc2c(c1)nc(-c1ccccc1C#N)n2[C@H]1CCC[C@@H](NC(=O)c2ccc(Br)s2)C1 [Compound 137] |  | 0.1 to 0.5
14 | 100 to 500 | CNC(=O)c1ccc2c(c1)nc(-c1ccccc1C#N)n2[C@H]1CCC[C@@H](NC(=O)c2ccc(C#N)s2)C1 [Compound 139] |  | ≥ 1
15 | 100 to 500 | CNC(=O)c1ccc2c(c1)nc(-c1ccccc1F)n2[C@H]1CCC[C@@H](NC(=O)c2ccc(Br)s2)C1 [Compound 145] | 0.1 to 0.5 | 
16 | 100 to 500 | CNC(=O)c1cc2nc(-c3ccccn3)n([C@H]3CCC[C@@H](NC(=O)c4ccc(Br)s4)C3)c2cc1F [Compound 155] | 0.5 to 1 | 
17 | < 100 | CNC(=O)c1cc2nc(-c3ccccc3C#N)n([C@H]3CCC[C@@H](NC(=O)c4ccc(Br)s4)C3)c2cc1F [Compound 157] | < 0.1 | 
18 | 100 to 500 | CNC(=O)c1ccc2c(c1)nc(-c1ccccc1C=O)n2[C@H]1CCC[C@@H](NC(=O)c2ccc(Br)s2)C1 [Compound 161] | 0.1 to 0.5 | 
19 | 100 to 500 | CNC(=O)c1ccc2c(c1)nc(-c1c(O)cccc1F)n2[C@H]1CCC[C@@H](NC(=O)c2ccc(Br)s2)C1 [Compound 184] | 0.1 to 0.5 | 
20 | < 100 | CNC(=O)c1cc2nc(-c3ccccc3F)n([C@H]3CCC[C@@H](NC(=O)c4ccc(Br)s4)C3)c2cc1F [Compound 207] | 0.1 to 0.5 | 

Reference: patent publication US20220274967A1, “BCAT MODULATION” (Icagen, LLC, priority 2019, published 2022)
